According to patent US20100183633A1, “INTERLEUKIN 6 AND TUMOR NECROSIS FACTOR ALPHA AS BIOMARKERS OF JNK INHIBITION” (UNIVERSITY OF MASSACHUSETTS, priority 2008, published 2010):

B1: IL6: inflammatory cytokine interleukin 6, given to mice by subcutaneous injection (1 μg/kg) (protein, UniProt P08505 25-211, looked up)
Interleukin-6: FPTSQVRRGDFTEDTTPNRPVYTTSQVGGLITHVLWEIVEMRKELCNGNSDCMNNDDALAENNLKLPEIQRNDGCYQTGYNQEICLLKISSGLLEYHSYLEYMKNNLKDNKKDKARVLQRDTETLIHIFNQEVKDLHKIVLPTPISNALLTDKLESQKEWLRTKTIQFILKSLEEFLKVTLRSTRQT

Assays:
Jnk1−/− mice = conditions: PTU-treated Jnk1−/− mice
Protocol: (§1) All studies with the selective ablation of the Jnk1 gene in the mouse nervous system were performed using male mice (8-24 wks old). The mice were treated with PTU in the drinking water (cherry-flavored Cool-Aid supplemented without or with 1.2 mM PTU (Sigma)). Body temperature was measured using a Microtherma 2 Type “T” Thermometer (Braintree Scientic Inc). Rip-CreESR mice were treated with 1 mg 4-hydroxytamoxifen (Sigma) by intraperitoneal injection once each day for 5 consecutive days.

N^KO and N^WT mice = test system: N^KO and N^WT mice
Protocol: as §1
N^KO and N^WT mice were treated with PTU in the drinking water and the effect of feeding a chow diet or a HFD was examined.

SOCS3 = test: Hepatic SOCS3 expression by immunoblot after IL6 treatment; type: in vivo; conditions: acute IL6 1 μg/kg s.c., HFD-fed F^KO mice, liver at 90 mins; compared with HFD-fed F^WT
Protocol: (§2) FIG. 10E is a representation of an immunoblot to detect expression of SOCS3 and tubulin (control). F^WT and F^KO mice were fed a HFD (16 wks). F^KO mice were treated with IL6 (1 μg/kg) by subcutaneous injection. At 90 mins post-injection, the blood IL6 concentration was 44±9.1 pg/ml (mean±SD; n=8), the liver was isolated, and the expression of SOCS3 and Tubulin was examined by immunoblot analysis as set forth in Example 1.
(§3) Immunoblot analysis: Tissue extracts were prepared using Triton lysis buffer [20 mM Tris (pH 7.4), 1% Triton X-100, 10% glycerol, 137 mM NaCl, 2 mM EDTA, 25 mM β-glycerophosphate, 1 mM sodium orthovanadate, 1 mM phenylmethylsulfonyl fluoride, and 10 μg/mL of aprotinin and leupeptin]. […] Immunocomplexes were detected by enhanced chemiluminescence (NEN). Quantitation of immunoblots was performed using the Odyssey™ infrared imaging system (LI-COR Biosciences). The amount of total and phospho-JNK1/2, cJun, ERK1/2, p38 MAPK, and AKT in tissue extracts was measured by multiplexed ELISA using a Luminex 200 instrument (Millipore) […]

[1] = Blood IL6 concentration after subcutaneous IL6 injection; type: in vivo; conditions: IL6 1 μg/kg subcutaneous, HFD-fed F^KO mice, 90 mins post-injection, mean±SD, n=8
Protocol: as §2
Cytokine analysis: Cytokines in plasma, serum, and culture medium were measured by multiplexed ELISA using a Luminex 200 machine (Millipore) and serum mouse adipokine, adiponectin and cytokine kits (Millipore). Insulin and insulin C-peptide in plasma were measured by ELISA using a Luminex 200 machine. Blood glucose was measured with an Ascensia Breeze 2 glucose meter (Bayer). Alanine transaminase (ALT) and aspartate aminotransferase (AST) activity in serum was measured using the ALT and AST Reagent kit (Pointe Scientific) with a Tecan Sapphire […] microplate reader (Tecan Trading AG).

AKT = test: Insulin-stimulated AKT activation (immunoblot) after IL6 treatment; type: in vivo; conditions: IL6 1 μg/kg s.c., insulin 0.3 mU/g i.v. after 90 mins, HFD-fed F^KO mice
Protocol: FIGS. 10G and 10H are representations of immunoblots to detect AKT, phospho-AKT, and tubulin in liver (G) and epididymal fat pads (H). HFD-fed F^KO mice were subcutaneously injected with IL6 (1 μg/kg) and after 90 mins, intravenously injected with insulin (0.3 mU/g). The liver (G) and epididymal fat pads (H) were isolated after 5 mins and examined by immunoblot analysis as set forth in Example 1.
as §3

HFD-fed F^KO mice = test: Insulin tolerance test after IL6 treatment; type: in vivo; conditions: IL6 1 μg/kg s.c., then insulin 0.75 mU/g i.p. after 90 mins; HFD-fed F^KO vs HFD-fed F^WT
Protocol: FIG. 10F is a graph of the glucose concentration during an ITT in which mice were treated by subcutaneous injection with IL6 (1 μg/kg) and then treated (after 90 mins) with insulin (0.75 mU/g) by intraperitoneal injection. Statistically significant differences between F^KO and F^WT mice are indicated (*, P<0.05; **, P<0.01).
Glucose tolerance, insulin tolerance, pyruvate challenge, and insulin clearance tests: The mice were fed a standard chow diet or a high fat diet (Iso Pro 3000, Purina and F3282, Bioserve Inc.) for 16 wks. Glucose tolerance tests (GTT), insulin tolerance tests (ITT), and pyruvate challenge tests were performed using methods described by Mora et al., FEBS Lett., 579, 3632 (2005). For GTT, mice fasted overnight were injected intraperitoneally with glucose (1 mg/g) and blood glucose concentration was measured over time. For ITT, mice fed ad libitum were injected intraperitoneally with insulin (0.75 mU/g) and blood glucose concentration was measured over time. In some ITT experiments, blood glucose concentration was measured at 30 minutes and the area under the curve (AUC) was calculated. For pyruvate challenge tests, mice fasted overnight were injected intraperitoneally with pyruvate (1 mg/g) and blood glucose concentration was measured over time. […]

Molecule | effect of whole body JNK1-deficiency on HFD-induced weight gain, hyperglycemia, glucose intolerance, insulin sensitivity, glucose-induced insulin release (Jnk1−/− mice) | expression of thyroid hormone responsive genes in intrascapular brown fat (N^KO and N^WT mice; PTU 1.2 mM in drinking water, NKO mice) | body weight when fed a HFD, N^KO vs N^WT (N^KO and N^WT mice; PTU in drinking water 12 wks, diet groups after 2 wks) | blood glucose, insulin, leptin and resistin concentrations and body temperature, N^KO vs N^WT (N^KO and N^WT mice; after 12 wks of PTU, chow-fed and HFD-fed) | metabolic phenotypes of NKO mice (N^KO and N^WT mice; inhibition of thyroid hormone by PTU-treatment) | hepatic SOCS3 expression (SOCS3) | blood IL6 concentration [1] | effect on AKT activation in the adipose tissue (AKT; epididymal fat pads) | insulin-stimulated AKT activation in the liver (AKT; liver) | insulin resistance in insulin tolerance test (HFD-fed F^KO mice)
CCCc1cc(=O)[nH]c(=S)[nH]1 [PTU, propylthiouracil] | significantly suppressed the effect of whole body JNK1-deficiency | suppressed the increased expression of thyroid hormone responsive genes | No statistically significant differences | No significant differences | markedly suppressed the metabolic phenotypes |  |  |  |  | 
B1 |  |  |  |  |  | increased hepatic SOCS3 expression | 44 ± 9.1 pg/mL | only a moderate effect | reduced insulin-stimulated AKT activation | became equally insulin resistant
